Two compounds from patent US20080008734A1, “Reduction of skin irritation caused by biomedical electrodes” (priority 2006, published 2008) can be followed below.

Data set [1] can be described thus: Stability of SAP in the aqueous environment of hydrogel adhesives. As to conditions: pH 4.0±0.5 aqueous environment of the hydrogel adhesives. It counts as physicochemical. The text has this:
(See U.S. Pat. No. 6,842,636 B2 to Perrault, et al. and U.S. Pat. No. 6,115,625 to Heard et al.).

The subject of a further data set is skin. As to the kind of experiment: Stimulation erythema with antioxidant incorporated in the conductive hydrogel adhesive. The following applies: in UV cured acrylic hydrogel adhesive; this amount gave a very weak adhesive that cohesively failed. It counts as in vivo. The text has this: In the majority of conductive hydrogel adhesives used in these biomedical electrodes are UV cured acrylics formed by the free radical polymerization of hydrophilic acrylic monomers in water. UV light generates free radicals from photoinitiators, however antioxidants react with these free radicals thereby inhibiting the polymerization of the acrylic monomers. Antioxidants such as MEHQ are used to preserve acrylic monomers until use. […] A few ppm of the very potent antioxidant Astaxathin inhibited polymerization. The greater than 1500 ppm of MEHQ alone that was needed to prevent and/or alleviate stimulation erythema gave a very weak hydrogel adhesive that cohesively failed leaving residue on the skin.

For the compound `O=C1O[C@H](C(O)CO)C(O)=C1OP(=O)(O)O` (some centres unmarked) [SAP, Sodium Ascorbyl Phosphate], the stability over time entry in data set [1] is reported as “not stable over time”.
With `COc1ccc(O)cc1` [MEHQ, monomethyl ether of hydroquinone], the “amount of MEHQ alone needed to prevent and/or alleviate stimulation erythema” value with skin is reported as “greater than 1500 ppm”.
